Results taken from patent US6905016B2, “Packaging system for transdermal drug delivery systems” (Noven Pharmaceuticals, Inc., priority 2000, dated 2005).
“Also recorded” adds a separate entry of the source.

Tests used:
[1] = prescribed for morning sickness during pregnancy; cited from earlier work
beta-adrenergic = settings: L-form versus D-enantiomer; cited from earlier work
[2] = Degradation of methylphenidate in presence of moisture or packaging materials (observation)

In the case of `O=C1CCC(N2C(=O)c3ccccc3C2=O)C(=O)N1` (single isomer, unassigned) [D-enantiomer of thalidomide, thalidomide], the “safety/effect of enantiomer in pregnancy” value [1] is listed as “safe and effective sedative”.
For `O=C1CCC(N2C(=O)c3ccccc3C2=O)C(=O)N1` (single isomer, unassigned) [L-enantiomer of thalidomide, thalidomide], the “safety/effect of enantiomer in pregnancy” value [1] is given as “potent teratogen”.
In the case of `CC(C)NC[C@H](O)COc1cccc2ccccc12` [L-form of propranolol, propranolol], the “potency relative to the D-enantiomer” value (beta-adrenergic) is given as 100 times.
For `COC(=O)C(c1ccccc1)C1CCCCN1` (centres unmarked) [methylphenidate], the “stability in the presence of packaging materials” value ([2]; certain types of packaging materials used for transdermal systems) was “unstable” and the “degradation in the presence of moisture” value ([2]; exposure to moisture) was “form ritalinic acid by hydrolysis; also recorded: formation of the erythro-enantiomers”.
